In series [1] the test system is T. brucei brucei wild type. Description: In vitro activity against T. brucei brucei wild type (P2 transporter proficient). The class given is cell-based, Trypanosoma brucei brucei. The settings on record: for EC50: Trypanosoma brucei, read-out: T. brucei brucei EC50 Wild type. On the procedure: (§1) Compounds were tested against two T. brucei lines in vitro. The T. brucei brucei wild type that is proficient in the P2 transporter and a TbAT1 knockout line lacking the P2 transporter. This TbAT1 knockout line has been described previously.[27]

Series [2] has as its system T. brucei brucei TbAT1 KO. Description: In vitro activity against TbAT1 knockout line lacking the P2 transporter. Type of series: cell-based, Trypanosoma brucei brucei. The settings on record: for Resistance factor (EC50 KO/EC50 w.t.): ratio TbAT1 KO vs wild type; for EC50: Trypanosoma brucei, read-out: T. brucei brucei EC50 TbAT1 KO. On the procedure:
as §1

The next series has as its target T. brucei ODC (Trypanosoma brucei brucei, UniProt P07805). In words: Inhibition of T. brucei ODC (previously described assay). Type of series: biochemical.
For the next series, the system named is rat liver ODC. Set-up: method as in PMID 1573631. The following applies: previously reported; read-out: inhibition of rat liver ODC; cited from earlier work.
[3] abbreviates: wild type, P2 proficient, NA = no activity at 100 μM.

Molecules are shown by their SMILES. Read-outs that look alike come from different tables or passages of the source.

Sequence of T. brucei ODC (P07805 whole entry): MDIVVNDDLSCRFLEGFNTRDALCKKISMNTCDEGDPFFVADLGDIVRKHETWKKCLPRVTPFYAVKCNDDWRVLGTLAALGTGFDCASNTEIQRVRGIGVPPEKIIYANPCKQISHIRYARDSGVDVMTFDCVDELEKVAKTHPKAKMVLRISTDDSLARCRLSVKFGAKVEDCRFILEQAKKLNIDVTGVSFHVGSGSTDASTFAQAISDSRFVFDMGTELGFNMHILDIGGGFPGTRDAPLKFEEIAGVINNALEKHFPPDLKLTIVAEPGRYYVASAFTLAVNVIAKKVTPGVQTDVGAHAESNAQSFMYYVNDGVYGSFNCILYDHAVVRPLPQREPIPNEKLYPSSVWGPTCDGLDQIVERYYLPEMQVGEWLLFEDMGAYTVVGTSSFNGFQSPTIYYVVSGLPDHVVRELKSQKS

On to `CC(Nc1nc(N)nc(N)n1)C(=O)OC(CN)CON.Cl.Cl` (centres unmarked) [Compound 11c], for which the melting point (commonly the temperature of the solid-liquid transition) was in the range of 160 to 180 °C. Also, in series [1] (setting [3]), the EC50 (usually the concentration at which the effect is half-maximal) worked out at 29 µM. In addition, the “Resistance factor (EC50 KO/EC50 w.t.)” value in series [2] is given as more than 3.

`CC(C)(C)OC(=O)NCC(CONC(=O)OC(C)(C)C)OC(=O)CCNc1nc(N)nc(N)n1` (centres unmarked) [Compound 10b]: the EC50 in series [1] stood at 77 µM. In series [2], the EC50 amounted to 40 µM and the “Resistance factor (EC50 KO/EC50 w.t.)” value is recorded as 0.5.

`NCC(O)CON` (centres unmarked) [Compound 7, 2-hydroxy APA]: the IC50 was 48 ± 9 nM on T. brucei ODC and 39 nM in the series with rat liver ODC. Also, the EC50 in series [1] is more than 100 µM.

Regarding `Cl.Cl.NCC(CON)OC(=O)CNc1nc(N)nc(N)n1` (centres unmarked) [Compound 11a], the melting point was in the range of 150 to 170 °C. Besides, the EC50 in series [1] (setting [3]) was more than 100 µM.

With `Cl.NCCCON` [Compound 3, 3-(aminooxy)propanamine, reference compound], the IC50 at T. brucei ODC is 22 ± 7 nM; in the series on rat liver ODC, 35 nM. In addition, the EC50 in series [1] was more than 100 µM. The “T. brucei brucei EC50 Wild type” value in series [1] (setting [3]) is “inactive”.

Consider `Cl.Cl.NCC(CON)OC(=O)CCCNc1nc(N)nc(N)n1` (centres unmarked) [Compound 11d], for which the values for the EC50 in series [1] (setting [3]) and in series [2] were 113 µM and 288 µM, respectively. Moreover, the “Resistance factor (EC50 KO/EC50 w.t.)” value in series [2] is given as 2.5.

As for `Cl.Cl.NCC(CON)OC(=O)CCNc1nc(N)nc(N)n1` (centres unmarked) [Compound 11b], the melting point was in the range of 150 to 170 °C. Further, the EC50 in series [1] (setting [3]) is more than 100 µM.

The values above are taken from publication PMC2935964, “Selective delivery of 2-hydroxy APA to Trypanosoma brucei using the melamine motif” (Bioorganic & Medicinal Chemistry Letters, 2010).
